Test results as given in patent EP0694545B1, “Substituted dibenzoxazepine compounds, pharmaceutical compositions and methods of use” (G.D. SEARLE & CO., priority 1991, dated 1992).
Counter-ions that a name gives are not always drawn.

Tested on: Charles River male albino mice
Experiment: PBQ Writhing Assay (analgesic activity)
Format: in vivo
Design: key to PBQ WRITHING ASSAY I.G. (Active / *) / PBQ WRITHING ASSAY S.C. (Active / *): *: Indicates that, in accordance with the particular conditions set forth above for the Writhing Assay, and under the test criteria employed for that assay, after the administration of an initial screening dosage of 30 mg per kilogram of the compound, the number of writhes elicited by a mouse injected with PBQ was not equal to, or less than, one-half the median number of writhes recorded for the saline-treated control group of mice that day
Conditions: for PBQ WRITHING ASSAY I.G. (Active / *): intragastric; for PBQ WRITHING ASSAY I.G. (Active / *) / PBQ WRITHING ASSAY S.C. (Active / *): initial screening dose 30 mg per kilogram, 30 min before PBQ i.p., writhes counted for ten minutes; for PBQ WRITHING ASSAY S.C. (Active / *): subcutaneous
Source text: The Writhing Assay is one of the most widely-used experimental procedures for measuring the analgesic activity of different narcotic and nonnarcotic analgesic agents, and involves the continuous, chemically-induced pain of visceral origin to an animal, such as a mouse or rat. [Gyires et al., Arch. int. Pharmacodyn, 267, 131-140 (1984); […] al., Fed. Proc., 15, 494 (1956); Koster et al., Fed. Proc., 18, 412 (1959); and Witken et al., J. Pharmacol. exp. Ther., 133, 400-408 (1961).] Chemicals which may be used to induce this pain include phenylbenzoquinone (PBQ) and acetic acid. As a result of the chemical irritation to the animal, a characteristic stretching and writhing of the animal (dorsiflexion of the animal's back, extension of its hindlimbs and the strong contraction of its abdominal musculature) will generally occur. […] Drugs which reduce the number of writhes of the animal appear to restore the normal nociceptive threshold of the animal. Charles River male albino mice, weighing 20 to 30 grams were used in this assay. Thirty minutes after subcutaneous or intragastric administration to ten mice of 30 mg per kilogram of body weight of a compound of the present invention ("test compound"), […] per 10 g of body weight of a 0.025% w/v solution of PBQ was injected intraperitoneally into each mouse. Ten mice which were given saline in place of a test compound of the invention were used as a control group. Five minutes later, each mouse was individually placed into a glass beaker for observation, and the number of writhes occurring during the following ten-minute period was counted. A test compound was considered to have produced analgesia in a mouse if, in accordance with the conditions set forth above, and under the test criteria employed for this assay, after the administration of 30 mg per kilogram of body weight of a compound of the present invention to the mouse, the number of writhes elicited by a mouse injected with PBQ was equal to, or less than, one-half the median number of writhes recorded for the saline-treated control group of mice that day, as described by Taber in "Predictive Value of Analgesic Assays in Mice and Rats," Advances in Biochemical Psychopharmacology, 8, 191 (1974). The standard initial screening dose of a test compound employed in this assay was […] for both routes of administration. If this initial screening dose of the test compound produced analgesia in seven of ten mice, then the effect of additional doses of the test compound on the writhing response was evaluated, and then the ED50 dose was generally calculated. (The slopes of the dose-response curves for all test compounds analyzed were compared as described by Tallarida and Murray, Manual of Pharmacologic Calculations, Page 11 (Springer Verlag, New York, 1981)).

Compound | PBQ WRITHING ASSAY I.G. (Active / *) | PBQ WRITHING ASSAY S.C. (Active / *) | ED50 (Mus musculus, po, intragastric administration, read-out: PBQ WRITHING ASSAY (ED50 (mpk)) I.G.) [mg/kg]
O=C(CCCCc1cccs1)NNC(=O)N1Cc2ccccc2Oc2ccc(Cl)cc21 [Example 33, β-chlorodibenz[b,f][1,4]oxazepine-10(11H)-carboxylic acid, 2-[1-oxo-5-(2-thienyl)pentyl]hydrazide] | * | * | 
O=C(CCc1cccc[n+]1[O-])NNC(=O)N1Cc2ccccc2Oc2ccc(Cl)cc21 [Example 10, 8-chlorodibenz[b,f][1,4]oxazepine-10(11H)--carboxylic acid, 2-[1-oxo-3-(2-pyridinyl)propyl]hydrazide, N-oxide] | * | * | 
8-chlorodibenz[b,f][1,4]oxazepine-10(11H)-carboxylic acid, 2-[1-oxo-4-(3-thienyl)-3Z-butenyl]hydrazide [Example 14] | * | * | 
O=C(NNC(=O)C(F)(F)Cc1ccccn1)N1Cc2ccccc2Oc2ccc(Cl)cc21 [Example 37, 8-chlorodibenz[b,f][1,4]oxazepine-10(11H)-carboxylic acid, 2-[2,2-difluoro-1-oxo-3-(2-pyridinyl)propyl]hydrazide] | Active |  | 9.7
Cl.O=C(Cc1cccnc1)NNC(=O)N1Cc2ccccc2Oc2ccc(Cl)cc21 [Example 22, 8-chlorodibenz[b,f][1,4]oxazepine-10(11H)-carboxylic acid, 2-(3-pyridinylacetyl)hydrazide, monohydrochloride] | * | Active | 
Cl.O=C(NNC(=O)N1Cc2ccccc2Oc2ccc(Cl)cc21)c1ccncc1 [Example 17, 8-chlorodibenz[b,f][1,4]oxazepine-10(11H)-carboxylic acid, 2-(4-pyridinylcarbonyl)hydrazide, monohydrochloride] | * | * | 
Cl.O=C(/C=C/c1ccccn1)NNC(=O)N1Cc2ccccc2Oc2ccc(Cl)cc21 [Example 20, 8-chlorodibenz[b,f][1,4]oxazepine-10(11H)-carboxylic acid, 2-[1-oxo-3-(2-pyridinyl)-2E-propenyl]hydrazide, monohydrochloride] | * | * | 
Cl.O=C(NNC(=O)N1Cc2ccccc2Oc2ccc(Cl)cc21)c1ccccn1 [Example 19, 8-chlorodibenz[b,f][1,4]oxazepine-10(11H)-carboxylic acid, 2-(2-pyridinylcarbonyl)hydrazide, monohydrochloride] | * | * | 
Cl.O=C(/C=C/c1ccncc1)NNC(=O)N1Cc2ccccc2Oc2ccc(Cl)cc21 [Example 27, 8-chlorodibenz[b,f][1,4]oxazepine-10(11H)-carboxylic acid, 2-[1-oxo-3-(4-pyridinyl)-2E-propenyl]hydrazide, monohydrochloride] | * | * | 
O=C(CCc1cccnc1)NNC(=O)N1Cc2ccccc2Oc2ccc(Cl)cc21 [Example 8, 8-chlorodibenz[b,f][1,4]oxazepine-10(11H)-carboxylic acid, 2-[1-oxo-3-(3-pyridinyl)propyl]hydrazide, monohydrochloride] | Active | Active | 
8-chlorodibenz[b,f][1,4]oxazepine-10(11H)-carboxylic acid, 2-[1-oxo-4-(3-thienyl)-3E-butenyl]hydrazide [Example 13] | * | * | 
O=C(/C=C/c1cccnc1)NNC(=O)N1Cc2ccccc2Oc2ccc(Cl)cc21 [Example 7, 8-chlorodibenz[b,f][1,4]oxazepine-10(11H)-carboxylic acid, 2-[1-oxo-3-(3-pyridinyl)-2E-propenyl]hydrazide] | Active | Active | 
Cl.O=C(NNC(=O)N1Cc2ccccc2Oc2ccc(Cl)cc21)c1cccnc1 [Example 18, 8-chlorodibenz[b,f][1,4]oxazepine-10(11H)-carboxylic acid, 2-(3-pyridinylcarbonyl)hydrazide, monohydrochloride] | * | * | 
Cl.O=C(Cc1ccncc1)NNC(=O)N1Cc2ccccc2Oc2ccc(Cl)cc21 [Example 23, 8-chlorodibenz[b,f][1,4]oxazepine-10(11H)-carboxylic acid, 2-(4-pyridinylacetyl)hydrazide, monohydrochloride] | * | * | 
O=C(CCCc1ccsc1)NNC(=O)N1Cc2ccccc2Oc2ccc(Cl)cc21 [Example 16, 8-chlorodibenz[b,f][1,4]oxazepine-10(11H)-carboxylic acid, 2-[1-oxo-4-(3-thienyl)butyl]hydrazide] | Active | * | 
Cl.O=C(CCCc1ccccn1)NNC(=O)N1Cc2ccccc2Oc2ccc(Cl)cc21 [Example 29, 8-chlorodibenz[b,f][1,4]oxazepine-10(11H)-carboxylic acid, 2-[1-oxo-4-(2-pyridinyl)butyl]hydrazide, monohydrochloride] | Active | Active | 
O=C(CCCc1ccncc1)NNC(=O)N1Cc2ccccc2Oc2ccc(Cl)cc21 [Example 31, 8-chlorodibenz[b,f][1,4]oxazepine-10(11H)-carboxylic acid, 2-[1-oxo-4-(4-pyridinyl)butyl]hydrazide] | Active | Active | 
8-chlorodibenz[b,f][1,4loxazepine-10(11H)-carboxylic acid, 2-(2-pyridinylacetyl)hydrazide, monohydrochloride [Example 21] | * | * | 
